# In patent US20250129104A1, “7H-PYRROLO[2,3-D]PYRIMIDINES AND PREPARATION AND USES THEREOF” (BioSplice Therapeutics, Inc., priority 2021, published 2025):
# Columns and labels:
# [1] = tested on: Tau phosphorylation at Thr212 (pThr212); assay: tau phosphorylation assay: phosphoTau (Thr212) AlphaLISA in HEK293T cells transfected with DYRK1A and MAPT; type: cell-based; settings: HEK-293T; HEK293T cells transfected with human DYRK1A and MAPT; 18-24 h compound treatment; read-out: pTau (Thr212) EC50
# Method in brief: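 HEK293T cells transiently co-transfected with human untagged DYRK1A and MAPT (441 aa Tau), reseeded, then treated 18-24 h at 37 °C with compounds (10-point 1:3 series, 20 μM to 1.1 nM final, duplicates). Lysates probed by AlphaLISA with HT7 donor and pThr212 acceptor antibodies; EC50 from curve fit of signal.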
# [2] = biological target: recombinant DYRK1A kinase (Homo sapiens (Human), UniProt Q13627); assay: DYRK1A kinase assay (Ser/Thr 18 peptide Z-lyte FRET assay); type: biochemical; settings: DYRK1A kinase activity; 15 μM ATP, 1 h room temperature; method text calls the value IC50
# Method in brief: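 FRET Z-lyte read-out (coumarin/fluorescein ratio, % phosphorylation) after 1 h development; IC50 from non-linear curve fit. Reaction: 0.25 μg/mL recombinant human DYRK1A, Ser/Thr 18 peptide 4 μM, ATP 15 μM, compound in 11-point 1:3 series from 10 μM, 1 h, room temperature, duplicate wells.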
EC50 [1],EC50 [2],SMILES
33 nM,4.2 nM,"Cc1cnc2ccc(-c3c[nH]c4nc(NCC(C)(C)F)ncc34)nn12 [Compound 1038, N-(2-Fluoro-2-methylpropyl)-5-(3-methylimidazo[1,2-b]pyridazin-6-yl)-7H-pyrrolo[2,3-d]pyrimidin-2-amine]"
572 nM,9.2 nM,"COc1nc(CC(C)C)nc2[nH]cc(-c3ccn4nccc4c3)c12 [Compound 1113, 2-Isobutyl-4-methoxy-5-(pyrazolo[1,5-a]pyridin-5-yl)-7H-pyrrolo[2,3-d]pyrimidine]"
386 nM,24.9 nM,"c1cc2cc(-c3c[nH]c4nc(C5CC5)ncc34)ccn2n1 [Compound 1115, 2-Cyclopropyl-5-(pyrazolo[1,5-a]pyridin-5-yl)-7H-pyrrolo[2,3-d]pyrimidine]"
6 nM,2.6 nM,"CO[C@H]1C[C@@H](Nc2ncc3c(-c4ccn5nccc5c4)c[nH]c3n2)C1 [Compound 1140, N-(cis-3-Methoxycyclobutyl)-5-(pyrazolo[1,5-a]pyridin-5-yl)-7H-pyrrolo [2,3-d]pyrimidin-2-amine]"
7 nM,385 nM,"c1cc2cc(-c3c[nH]c4nc(NC5CC6(COC6)C5)ncc34)ccn2n1 [Compound 1141, 5-(Pyrazolo[1,5-a]pyridin-5-yl)-N-(2-oxaspiro[3.3]heptan-6-yl)-7H-pyrrolo [2,3-d]pyrimidin-2-amine]"
32 nM,5.7 nM,"FC1(F)CCC(Nc2ncc3c(-c4ccn5nccc5c4)c[nH]c3n2)CC1 [Compound 1142, N-(4,4-Difluorocyclohexyl)-5-(pyrazolo[1,5-a]pyridin-5-yl)-7H-pyrrolo[2,3-d]pyrimidin-2-amine]"
4 nM,3.7 nM,"CO[C@H]1CC[C@@H](Nc2ncc3c(-c4ccn5nccc5c4)c[nH]c3n2)CC1 [Compound 1143, N-(cis-4-Methoxycyclohexyl)-5-(pyrazolo[1,5-a]pyridin-5-yl)-7H-pyrrolo [2,3-d]pyrimidin-2-amine]"
11 nM,4.2 nM,"c1cc2cc(-c3c[nH]c4nc(NC5CCOCC5)ncc34)ccn2n1 [Compound 1148, 5-(Pyrazolo[1,5-a]pyridin-5-yl)-N-(tetrahydro-2H-pyran-4-yl)-7H-pyrrolo [2,3-d]pyrimidin-2-amine]"
219 nM,9.7 nM,"CC(C)(F)CNc1ncc2c(-c3ccn4ncc(C(=O)N5CCCCC5)c4c3)c[nH]c2n1 [Compound 1214, (5-(2-((2-Fluoro-2-methylpropyl)amino)-7H-pyrrolo[2,3-d]pyrimidin-5-yl)pyrazolo[1,5-a]pyridin-3-yl)(piperidin-1-yl)methanone]"
116 nM,18.1 nM,"CN1CCC(Nc2ncc3c(-c4ccn5ncc(C(=O)N6CCCCC6)c5c4)c[nH]c3n2)CC1 [Compound 1233, (5-(2-((1-Methylpiperidin-4-yl)amino)-7H-pyrrolo[2,3-d]pyrimidin-5-yl)pyrazolo[1,5-a]pyridin-3-yl)(piperidin-1-yl)methanone]"
27 nM,1.6 nM,"O=C(NCC(F)F)c1cnn2ccc(-c3c[nH]c4nc(C5CC5)ncc34)cc12 [Compound 1249, 5-(2-Cyclopropyl-7H-pyrrolo[2,3-d]pyrimidin-5-yl)-N-(2,2-difluoroethyl) pyrazolo[1,5-a]pyridine-3-carboxamide]"
141 nM,14.6 nM,"O=C(NCC(F)F)c1cnn2ccc(-c3c[nH]c4nc(C5CCC5)ncc34)cc12 [Compound 1250, 5-(2-Cyclobutyl-7H-pyrrolo[2,3-d]pyrimidin-5-yl)-N-(2,2-difluoroethyl) pyrazolo[1,5-a]pyridine-3-carboxamide]"
54 nM,2.3 nM,"CC(C)(F)CNC(=O)c1cnn2ccc(-c3c[nH]c4nc(C5CC5)ncc34)cc12 [Compound 1292, 5-(2-Cyclopropyl-7H-pyrrolo[2,3-d]pyrimidin-5-yl)-N-(2-fluoro-2-methylpropyl)pyrazolo[1,5-a]pyridine-3-carboxamide]"
236 nM,17.7 nM,"C[C@@H](NC(=O)c1cnn2ccc(-c3c[nH]c4nc(C5CC5)ncc34)cc12)C(F)(F)F [Compound 1335, (R)-5-(2-Cyclopropyl-7H-pyrrolo[2,3-d]pyrimidin-5-yl)-N-(1,1,1-trifluoropropan-2-yl)pyrazolo[1,5-a]pyridine-3-carboxamide]"
604 nM,2.6 nM,"O=C(NC1CC(F)(F)C1)c1cnn2ccc(-c3c[nH]c4nc(C5CC5)ncc34)cc12 [Compound 1378, 5-(2-Cyclopropyl-7H-pyrrolo[2,3-d]pyrimidin-5-yl)-N-(3,3-difluorocyclobutyl)pyrazolo[1,5-a]pyridine-3-carboxamide]"
7020 nM,39.9 nM,"CN1CCC(NC(=O)c2cnn3ccc(-c4c[nH]c5nc(C6CCC6)ncc45)cc23)CC1 [Compound 1509, 5-(2-Cyclobutyl-7H-pyrrolo[2,3-d]pyrimidin-5-yl)-N-(1-methylpiperidin-4-yl)pyrazolo[1,5-a]pyridine-3-carboxamide]"
34 nM,5.8 nM,"CN1CCC(NC(=O)c2cnn3ccc(-c4c[nH]c5nc(NCC(C)(C)C)ncc45)cc23)CC1 [Compound 1516, N-(1-Methylpiperidin-4-yl)-5-(2-(neopentylamino)-7H-pyrrolo[2,3-d]pyrimidin-5-yl)pyrazolo[1,5-a]pyridine-3-carboxamide]"
24 nM,1.2 nM,"CN1CCC(NC(=O)c2cnn3ccc(-c4c[nH]c5nc(NCC6(F)CCCCC6)ncc45)cc23)CC1 [Compound 1535, 5-(2-(((1-Fluorocyclohexyl)methyl)amino)-7H-pyrrolo[2,3-d]pyrimidin-5-yl)-N-(1-methylpiperidin-4-yl)pyrazolo[1,5-a]pyridine-3-carboxamide]"
3910 nM,3.7 nM,"CN1CCC(Nc2ncc3c(-c4ccn5ncc(C(=O)Nc6cccnc6)c5c4)c[nH]c3n2)CC1 [Compound 1624, 5-(2-((1-Methylpiperidin-4-yl)amino)-7H-pyrrolo[2,3-d]pyrimidin-5-yl)-N-(pyridin-3-yl)pyrazolo[1,5-a]pyridine-3-carboxamide]"
152 nM,3.9 nM,"CC(C)(F)CNc1ncc2c(-c3ccn4nccc4n3)c[nH]c2n1 [Compound 1648, N-(2-Fluoro-2-methylpropyl)-5-(pyrazolo[1,5-a]pyrimidin-5-yl)-7H-pyrrolo [2,3-d]pyrimidin-2-amine]"
120 nM,10.5 nM,"CC1(CNc2ncc3c(-c4ccn5nccc5n4)c[nH]c3n2)CC1 [Compound 1658, N-((1-Methylcyclopropyl)methyl)-5-(pyrazolo[1,5-a]pyrimidin-5-yl)-7H-pyrrolo[2,3-d]pyrimidin-2-amine]"
141 nM,19.9 nM,"FC(F)(F)C1(CNc2ncc3c(-c4ccn5nccc5n4)c[nH]c3n2)CC1 [Compound 1659, 5-(Pyrazolo[1,5-a]pyrimidin-5-yl)-N-((1-(trifluoromethyl)cyclopropyl)methyl)-7H-pyrrolo[2,3-d]pyrimidin-2-amine]"
103 nM,13.4 nM,"FC1(CNc2ncc3c(-c4ccn5nccc5n4)c[nH]c3n2)CCC1 [Compound 1662, N-((1-Fluorocyclobutyl)methyl)-5-(pyrazolo[1,5-a]pyrimidin-5-yl)-7H-pyrrolo[2,3-d]pyrimidin-2-amine]"
56 nM,6 nM,"CO[C@H]1CC[C@@H](Nc2ncc3c(-c4ccn5nccc5n4)c[nH]c3n2)CC1 [Compound 1664, N-(cis-4-Methoxycyclohexyl)-5-(pyrazolo[1,5-a]pyrimidin-5-yl)-7H-pyrrolo[2,3-d]pyrimidin-2-amine]"
168 nM,2.1 nM,"CN1CCN(c2cc(Nc3ncc4c(-c5ccc6c(c5)C(C)(C)CNC6=O)c[nH]c4n3)ccn2)CC1 [Compound 1849, 4,4-Dimethyl-6-(2-((2-(4-methylpiperazin-1-yl)pyridin-4-yl)amino)-7H-pyrrolo[2,3-d]pyrimidin-5-yl)-3,4-dihydroisoquinolin-1(2H)-one]"
2 nM,9 nM,"CO[C@H]1CC[C@@H](Nc2ncc3c(-c4ccc5ncccc5c4)c[nH]c3n2)CC1 [Compound 1885, N-(cis-4-Methoxycyclohexyl)-5-(quinolin-6-yl)-7H-pyrrolo[2,3-d]pyrimidin-2-amine]"
22 nM,3.1 nM,"CN1CCC(Nc2ncc3c(-c4ccc5ncccc5c4)c[nH]c3n2)CC1 [Compound 1888, N-(1-Methylpiperidin-4-yl)-5-(quinolin-6-yl)-7H-pyrrolo[2,3-d]pyrimidin-2-amine]"
47 nM,4.9 nM,"CC(C)(F)CNc1ncc2c(-c3ccc4nccnc4c3)c[nH]c2n1 [Compound 1913, N-(2-Fluoro-2-methylpropyl)-5-(quinoxalin-6-yl)-7H-pyrrolo[2,3-d]pyrimidin-2-amine]"
111 nM,3.7 nM,"FC1(F)CCC(Nc2ncc3c(-c4ccc5nccnc5c4)c[nH]c3n2)CC1 [Compound 1928, N-(4,4-Difluorocyclohexyl)-5-(quinoxalin-6-yl)-7H-pyrrolo[2,3-d]pyrimidin-2-amine]"
10 nM,5.3 nM,"CO[C@H]1CC[C@@H](Nc2ncc3c(-c4ccc5nccnc5c4)c[nH]c3n2)CC1 [Compound 1929, N-(cis-4-Methoxycyclohexyl)-5-(quinoxalin-6-yl)-7H-pyrrolo[2,3-d]pyrimidin-2-amine]"
